A short description of data set [1]: Pharmacokinetic test in mice. Type of data set: in vivo, ICR mice. To be noted: mouse, plasma. How it is done:
Test example 6: Pharmacokinetic test in mice
Experimental objective: In this experiment, a single dose of test substances was administered to ICR mice intravenously and intragastrically, the concentrations of the test compounds in plasma of mice were measured, and the pharmacokinetic characteristics and bioavailability of the test compounds in mice were evaluated.
Experimental animals: Male ICR mice, 20-35 g, purchased from Chengdu Dossy Experimental Animals Co., Ltd. (SCXK (CHUAN) 2020-030).
Experimental method: On the day of the experiment, the ICR mice were randomly grouped according to their body weights. The animals were fasted but with water available overnight before the administration, and fed 4 h after the administration.
Sampling: Blood was taken from the orbits of the mice at specified time points, and placed in an EDTAK2 centrifuge tube. Centrifugation was performed at 5000 rpm at 4°C for 10 min, and the plasma was collected.
Time points for plasma collection in G1 and G1-2 groups: 0, 5 min, 15 min, 30 min, 1 h, 2 h, 4 h, 7 h, and 24 h.
Time points for plasma collection in G2 and G2-2 groups: 0, 5 min, 15 min, 30 min, 1 h, 2 h, 4 h, 7 h, and 24 h.
Before analysis and detection, all the samples were stored at -60°C or lower. The samples were analysed quantitatively by LC-MS/MS. Table 6-1 PK data of test compound drug in mice

The target of the next data set is T1, HPK1 protein (Homo sapiens, UniProt Q92918).
T1 construct: host or cells: Jurkat cells
T1 sequence (Q92918 whole entry): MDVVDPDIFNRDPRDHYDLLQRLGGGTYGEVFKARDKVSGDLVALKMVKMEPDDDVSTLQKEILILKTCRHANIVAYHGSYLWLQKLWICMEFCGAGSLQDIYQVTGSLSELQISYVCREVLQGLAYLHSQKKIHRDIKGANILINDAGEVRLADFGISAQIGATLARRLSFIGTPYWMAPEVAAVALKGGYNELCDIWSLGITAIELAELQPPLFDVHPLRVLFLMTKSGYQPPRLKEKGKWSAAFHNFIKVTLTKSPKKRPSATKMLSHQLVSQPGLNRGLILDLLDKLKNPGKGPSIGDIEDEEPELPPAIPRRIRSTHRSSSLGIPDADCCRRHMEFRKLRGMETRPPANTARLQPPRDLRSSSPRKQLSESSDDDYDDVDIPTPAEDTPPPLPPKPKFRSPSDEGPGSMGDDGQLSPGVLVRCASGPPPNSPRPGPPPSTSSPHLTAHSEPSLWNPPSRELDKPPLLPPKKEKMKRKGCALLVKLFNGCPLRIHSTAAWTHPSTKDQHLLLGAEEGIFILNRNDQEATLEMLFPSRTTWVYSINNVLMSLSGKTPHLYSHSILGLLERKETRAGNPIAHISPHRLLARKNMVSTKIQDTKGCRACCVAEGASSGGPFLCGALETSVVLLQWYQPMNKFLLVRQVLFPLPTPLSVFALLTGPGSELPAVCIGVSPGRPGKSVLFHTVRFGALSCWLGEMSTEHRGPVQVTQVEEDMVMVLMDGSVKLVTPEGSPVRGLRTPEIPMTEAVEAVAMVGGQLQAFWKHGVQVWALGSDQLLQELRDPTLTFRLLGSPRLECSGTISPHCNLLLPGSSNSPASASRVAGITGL
Put plainly: Detection of HPK1 protein expression level in Jurkat cells (24 h). Type of data set: cell-based. The note with it: 24 hours incubation. How it is done: Test example 4: Detection of HPK1 protein expression level in Jurkat cells (24 h)
Jurkat cells from ATCC were placed in a RPMI-1640 complete medium (supplemented with 10% FBS and 1% penicillin-streptomycin solution) and cultured at 37°C and 5% CO2. The cells in the logarithmic growth phase were collected, the cell density was adjusted to 5 × 10^5 cells/well with the culture medium, and the cells were added to a 6-well cell culture plate at a volume of 1 mL/well. The compound to be tested was prepared to 2-fold the final concentration, 1 mL of the compounds at different concentrations were added to administration wells, a medium containing 0.2% DMSO was added to control wells, and the plate was incubated at 37°C and 5% CO2 for 24 hours. The cells were collected into a 1.5 mL centrifuge tube, 30 µL of RIPA lysis buffer (containing 1X protease inhibitor cocktail) was added, and the cells were lysed on ice for 15 minutes and centrifuged at 12000 rpm/min at 4°C for 10 minutes. The supernatant was collected and the protein content was determined using the BCA method. The protein sample to be tested was diluted to 0.2 mg/mL, HPK1 was detected using a fully automated protein expression quantitative analyser (ProteinSimple), and the internal reference protein was β-actin (all antibodies were from CST). The software (Compass for SW) of the fully automated protein expression quantitative analyser was used to process the raw data and calculate the peak area after internal reference normalisation and the HPK1 degradation rate relative to the control group. The HPK1 degradation rate was calculated according to formula 4-1, where Aadministration well is the relative peak area of the administration group after internal reference normalisation, and Acontrol well is the relative peak area of the vehicle control group after internal reference normalisation. DC50 values were calculated using a four-parameter non-linear fitting model in Graphpad 8.3.0 software. HPK1_degradation % = 100−(Aadministration well/Acontrol well×100%) [formula] Table 4-1 Degradation activity of test compounds against HPK1 protein in Jurkat cells (24 h)

In data set [2] the test system is IL-2 secretion by T cells. Put plainly: IL-2 detection assay in cells (ELISA, pan-T cells isolated from PBMCs). Type of data set: cell-based. The note with it: IL-2, CD3 antibody-coated plate, 24 hours; for Maximum activation fold: maximum activation rate/control group. How it is done:
9. IL-2 detection assay in cells
Activating effect of compounds on IL-2 secretion by T cells was evaluated using the ELISA method. Frozen PBMCs were thawed, and pan-T cells were isolated and purified using a T cell sorting kit (Stemcell, 17951). The cells were resuspended in 1640 complete medium and incubated in a 37°C&5%CO2 incubator overnight. A 96-well plate coated with an anti-human CD3 antibody (Thermo, 16-0037-38) at a final concentration of 5 µg/mL was incubated at 37°C for 2 h. The overnight-cultured cells were collected by centrifugation, the supernatant was discarded, and the cells were resuspended in 1640 complete medium, and seeded in the CD3 antibody-coated 96-well plate at a density of 10^5cells/well. The compounds at different concentrations were added, and the mixture was incubated in a 37°C&5%CO2 incubator for 24 hours. After the incubation was completed, the resulting mixture was centrifuged at 1000 rpm for 1 minute to collect the supernatant, and IL-2 was detected according to the ELISA instructions. DMSO without compounds was used as the control group to calculate the activation rate of the compounds, and prism was used to fit the activation curve. Maximum activation fold = maximum activation rate/control group. Table 9-1 Results of IL-2 activation by test compounds

A further data set addresses T2, HPK1 kinase (Homo sapiens, UniProt Q92918).
T2 construct: purchased Carna 07-410
T2 sequence (Q92918 1-346 limits assumed): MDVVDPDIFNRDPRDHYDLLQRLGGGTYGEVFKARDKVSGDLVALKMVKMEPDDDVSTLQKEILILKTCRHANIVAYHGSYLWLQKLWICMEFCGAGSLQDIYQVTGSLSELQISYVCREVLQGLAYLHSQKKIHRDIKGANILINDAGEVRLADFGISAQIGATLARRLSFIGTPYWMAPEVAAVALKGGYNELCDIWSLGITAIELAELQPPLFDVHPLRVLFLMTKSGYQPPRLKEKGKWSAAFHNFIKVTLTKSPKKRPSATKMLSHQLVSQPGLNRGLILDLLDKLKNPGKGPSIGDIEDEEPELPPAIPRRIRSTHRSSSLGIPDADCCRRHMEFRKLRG
Description: HPK1 kinase assay (1 mM ATP). Type of data set: biochemical. How it is done:
Test example 5: HPK1 kinase assay (1 mM ATP)
The kinase HPK1 (Carna, Cat.No 07-410) was prepared into 2× kinase solution using 1× kinase buffer. The substrate Fluorescein-PKC (Invitrogen, Cat. No. PV3506) and ATP (working concentration: 1 mM) (Sigma, Cat. No. 2383-5G) were prepared into 2× substrate solution using 1×kinase buffer. The detection reagent was diluted to 2-fold the final concentration using an antibody diluent. 100 nL of compounds at different concentrations and 5 µL of kinase solution were added to each well of a 384-well plate, and the mixture was incubated at room temperature for 10 minutes. After the incubation was completed, 5 µL of substrate solution was added to each well, and the resulting mixture was reacted at room temperature for 90 minutes. After the reaction was completed, 10 µL of detection reagent was added to each well to terminate the reaction, and the mixture was incubated at room temperature for 60 minutes. Fluorescence readings were detected using an Envision instrument with excitation at 320 nm and emission at 520 nm and 495 nm. IC50 value was calculated using XLFit excel add-in version 5.4.0.8 software. The calculation formula of the inhibition rate was shown in formula 5-1, wherein max is the Ratio of the DMSO control, min is the Ratio of the negative control without enzyme, and sample is the Ratio of the compound. Ratio = RFU520nm /RFU495nm [formula] Inhibition% = (max−sample)/(max−min) × 100% [formula] Table 5-1 Inhibitory activity of test compounds against HPK1 kinase

Data set [3] is described as follows: Pharmacokinetic test in rats. Type of data set: in vivo, SD rats. The note with it: rat, plasma. As to the method:
Test example 7: Pharmacokinetic test in rats
Experimental animals: Male SD rats, 180-200 g, purchased from Chengdu Dossy Experimental Animals Co., Ltd. with the laboratory animal production license number of SCXK (CHUAN) 2020-030.
Experimental design: on the day of the experiment, the SD rats were randomly grouped according to their body weights. The animals were fasted but with water available overnight before the administration, and fed 4 h after the administration.
Vehicle for intragastric administration: 5% Solutol+5% TPGS+30% PEG400+60% (20% SBE-β-CD)
Blood was taken from the orbits of the […] at specified time points, and placed in an EDTAK2 centrifuge tube. Centrifugation was performed at 5000 rpm for 10 min, and the plasma was collected.
Blood sampling time points for the intravenous administration group were: 0, 5 min, 15 min, 30 min, 1 h, 2 h, 4 h, 6 h, 8 h and 24 h; blood sampling time points for the intragastric administration group were: 0, 5 min, 15 min, 30 min, 1 h, 2 h, 4 h, 6 h, 8 h and 24 h. Before analysis and detection, all the samples were stored at - 60°C or lower. The samples were analysed quantitatively by LC-MS/MS. Table 7-1 PK data of test compound drug in rats

Structures are written as SMILES. Counter-ions that a name gives are not always drawn. Like-named read-outs stand apart in the source and are kept apart here.

Turning to `Cn1ccc2c(-c3ccc(Nc4ccc(N5CCC(CN6CCN7c8cc(F)c(N9CCC(=O)NC9=O)cc8CC[C@@H]7C6)CC5)cn4)c4c3CNC4=O)ccnc21` [Trifluoroacetic acid salt of compound 32], in data set [1] (po, i. g., 10 mg/kg), the AUC (as a rule, concentration integrated over time) was 15800 ng·h/mL; the Cmax (as a rule, the peak of the concentration-time curve) worked out at 1250 ng/mL; the half-life (commonly the time in which the quantity being followed falls by half) was 4.37 h. The compound also showed a DC50 on HPK1 protein of under 20 nM. This compound also registered a Maximum activation fold in data set [2] of over 10. Moreover, the IC50 (as a rule, the concentration that gives 50% inhibition) against HPK1 kinase is under 50 nM.
With `CN(C)Cc1nc(Nc2ccc(-c3cnc4cc(F)ccn34)c3c2C(=O)NC3)ccc1[C@@H]1CCOC1` [Control compound 1, reference compound], in data set [1] (IV, 2.5 mg/kg), the clearance – broadly, the volume of plasma or blood freed of the substance per unit of time – was 169 mL/min/kg and the half-life is 0.89 h. For the same compound, in data set [1] (po, i. g., 10 mg/kg), the AUC was found to be 248 ng·h/mL, the highest level (Cmax) was 93.8 ng/mL and the half-life is 2.05 h. In addition, in data set [3] (IV, 2.5 mg/kg), the clearance came to 233 mL/min/kg and the half-life was 0.986 h. In data set [3] (po, i. g., 10 mg/kg), this compound gave an exposure (AUC) of 61.1 ng·h/mL, a maximum concentration (Cmax) of 14.6 ng/mL and a half-life of 1.71 h. Moreover, in data set [2], the “Activation fold at 100 nM concentration” value was under 10 and the Maximum activation fold was under 10.
In data set [1] (po, i. g., 10 mg/kg), `N#Cc1ccn2c(-c3ccc(Nc4ccc(N5CCC(CN6CCN7c8cc(F)c(N9CCC(=O)NC9=O)cc8CC[C@H]7C6)CC5)cn4)c4c3CNC4=O)cnc2c1` [Trifluoroacetic acid salt of compound 39] had an AUC of 25600 ng·h/mL, a peak concentration (Cmax) of 2070 ng/mL and a half-life of 3.75 h. In data set [3] (IV, 2.5 mg/kg), this compound gave a clearance of 6.58 mL/min/kg and a half-life of 4.21 h. In data set [3] (po, i. g., 10 mg/kg), this compound had an area under the curve (AUC) of 7260 ng·h/mL, a Cmax of 777 ng/mL and a half-life of 4.55 h. This compound returned a DC50 on HPK1 protein of under 20 nM. In data set [2], the “Activation fold at 100 nM concentration” value is over 10 and the Maximum activation fold is on record as over 10. Moreover, the concentration for half-maximal inhibition (IC50) against HPK1 kinase was under 50 nM.
As to `O=C1CCN(c2cc3c(cc2F)N2CCN(C4CC5(CCN(c6ccc(Nc7ccc(-c8cnc9cc(F)ccn89)c8c7C(=O)NC8)nc6)CC5)C4)C[C@H]2CC3)C(=O)N1` [Trifluoroacetic acid salt of compound 19], in data set [1] (po, i. g., 10 mg/kg), the AUC came to 50500 ng·h/mL, the concentration peaked (Cmax) at 3700 ng/mL and the half-life was 6.68 h. In data set [3] (IV, 2.5 mg/kg), this compound had a clearance of 11 mL/min/kg and a half-life of 7.66 h. In data set [3] (po, i. g., 10 mg/kg), the AUC was 5860 ng·h/mL, the highest concentration (Cmax) stood at 465 ng/mL and the half-life was 7.17 h. Further, the DC50 at HPK1 protein was under 20 nM. In data set [2], the “Activation fold at 100 nM concentration” value is over 10 and the Maximum activation fold is over 10. This compound also yielded an IC50 against HPK1 kinase of under 50 nM.
Regarding `O=C1CC[C@H](NC(=O)c2cc3c(cc2F)N2CCN(CC4CCN(c5ccc(Nc6ccc(-c7cnc8cc(F)ccn78)c7c6C(=O)NC7)nc5)CC4)C[C@@H]2CC3)C(=O)N1` [Trifluoroacetic acid salt of compound 7], the DC50 on HPK1 protein is under 20 nM. Besides, in data set [2], the “Activation fold at 100 nM concentration” value is over 10 and the Maximum activation fold is given as over 10. Also, on HPK1 kinase (ATP working concentration: 1 mM), the IC50 was under 50 nM.
`N#Cc1ccn2c(-c3ccc(Nc4ccc(N5CCC(CN6CCN7c8cc(F)c(N9CCC(=O)NC9=O)cc8CC[C@@H]7C6)CC5)cn4)c4c3CNC4=O)cnc2c1` [Trifluoroacetic acid salt of compound 31]: in data set [1] (po, i. g., 5 mg/kg), the AUC was 6500 ng·h/mL, the Cmax was 553 ng/mL and the half-life is 3.03 h. In data set [3] (IV, 1 mg/kg), this compound had a clearance of 5.38 mL/min/kg and a half-life of 4.88 h. Besides, in data set [3] (po, i. g., 5 mg/kg), the AUC worked out at 4390 ng·h/mL, the Cmax is 464 ng/mL and the half-life is 4.48 h. The compound also displayed a DC50 at HPK1 protein of under 20 nM. Moreover, in data set [2], the “Activation fold at 100 nM concentration” value is given as over 10 and the Maximum activation fold is given as over 10. Moreover, the concentration for half-maximal inhibition (IC50) against HPK1 kinase is under 50 nM.
For `Cn1ccc2c(-c3ccc(Nc4ccc(N5CCC(CN6CCN7c8cc(F)c(N9CCC(=O)NC9=O)cc8CC[C@H]7C6)CC5)cn4)c4c3CNC4=O)ccnc21` [Trifluoroacetic acid salt of compound 35], in data set [1] (po, i. g., 10 mg/kg), the exposure (AUC) came to 37100 ng·h/mL, the concentration peaked (Cmax) at 2650 ng/mL and the half-life was 12.1 h. In addition, on HPK1 protein, the DC50 is under 20 nM. In data set [2], this compound came in with a Maximum activation fold of over 10. The compound also returned an IC50 on HPK1 kinase of under 50 nM.
